The values that follow come from PubChem BioAssay AID1745844 (Carcinogenic Potency Database (CPDB), 2022).

“And” between values parts separate entries of the source, which are not always exact repeats. Equal entries are not always repeated. The source made the active and inactive calls. No rule for the calls is given here.

This data set deals with rodent lifetime carcinogenesis bioassay, tumor incidence TD50. Nature of the data set: chronic cancer bioassays in animals – CPDB, compiled studies (AID 1745844).

The term TD50 denotes the dose at which the toxic effect under study appears in half of the subjects. `Cc1cccc2ccccc12`: the TD50 (mouse, strain B6C3F1, females, in feed, site: liver, lesion: hepatocellular adenoma, dosed 81 weeks, study length 81 weeks) was 979 mg/kg/day; the TD50 (mouse, strain B6C3F1, females, in feed, site: liver, lesion: hepatocellular carcinoma, dosed 81 weeks, study length 81 weeks) worked out at 6040 mg/kg/day; the TD50 (mouse, strain B6C3F1, males, in feed, site: any site (literature study), lesion: one or several types, types not named, dosed 81 weeks, study length 81 weeks) is 2260 mg/kg/day; the TD50 (mouse, strain B6C3F1, males, in feed, site: lung, lesion: alveolar/bronchiolar adenoma, dosed 81 weeks, study length 81 weeks) was 244 mg/kg/day; the TD50 (mouse, strain B6C3F1, males, in feed, site: lung, lesion: alveolar/bronchiolar carcinoma, dosed 81 weeks, study length 81 weeks) came out at 1830 mg/kg/day; the TD50 (mouse, strain B6C3F1, males, in feed, site: lung, lesion: several types, types named in the paper, dosed 81 weeks, study length 81 weeks) was 201 mg/kg/day.

With `O=C1c2ccccc2-c2ccc3c4c(ccc1c24)-c1ccccc1C3=O`, the carcinogen call was “negative (inactive)” (mouse, strain B6C3F1, females, in feed, site: any site (literature study), lesion: several types, types named in the paper, dosed 106 weeks, study length 106 weeks) and “negative (inactive)” (rat, strain Fischer 344, females, in feed, site: any site (literature study), lesion: several types, types named in the paper, dosed 104 weeks, study length 104 weeks). Moreover, the TD50 was 23900 mg/kg/day (mouse, strain B6C3F1, females, in feed, site: liver, lesion: hepatocellular adenoma + hepatocellular carcinoma + neoplastic nodule, dosed 106 weeks, study length 106 weeks); 10900 mg/kg/day (mouse, strain B6C3F1, males, in feed, site: all sites, lesion: lymphoma, dosed 106 weeks, study length 106 weeks); 4410 mg/kg/day (mouse, strain B6C3F1, males, in feed, site: any site (literature study), lesion: several types, types named in the paper, dosed 106 weeks, study length 106 weeks); 8610 mg/kg/day (mouse, strain B6C3F1, males, in feed, site: liver, lesion: hepatocellular adenoma + hepatocellular carcinoma + neoplastic nodule, dosed 106 weeks, study length 106 weeks); 19100 mg/kg/day (mouse, strain B6C3F1, males, in feed, site: lung, lesion: alveolar/bronchiolar adenoma + alveolar/bronchiolar carcinoma, dosed 106 weeks, study length 106 weeks); 787 mg/kg/day (inactive) (rat, strain Fischer 344, males, in feed, site: any site (literature study), lesion: several types, types named in the paper, dosed 104 weeks, study length 104 weeks). Moreover, the TD50 (rat, strain Fischer 344, males, in feed, site: liver, lesion: hepatocellular adenoma + hepatocellular carcinoma + neoplastic nodule, dosed 104 weeks, study length 104 weeks) came to 2790 mg/kg/day.

For the compound `C#C[C@]1(O)CC[C@H]2[C@@H]3CCc4cc(O)ccc4[C@H]3CC[C@@]21C`, the TD50 (rat, strain Slc-Wistar, females, by gavage, site: liver, lesion: hepatocellular carcinoma, dosed 52 weeks, study length 52 weeks) was 0.2 mg/kg/day.

The compound `CC(=O)OC1CC(C)CCC1C(C)C` (stereo not given) (tested in a mixture with another compound) registered a TD50 (mouse, strain CFLP, males, by gavage, site: any site (literature study), lesion: malignant tumor, dosed 80 weeks, study length 104 weeks) of 112 mg/kg/day.

In the case of `Cl`, the TD50 is, setting by setting: (rat, strain Fischer 344, males, in feed, site: adrenal medulla, lesion: pheochromocytoma, dosed 104 weeks, study length 104 weeks) 6210 mg/kg/day (inactive); (rat, strain Fischer 344, males, in feed, site: mammary gland, lesion: fibroadenoma, dosed 104 weeks, study length 104 weeks) 33500 mg/kg/day (inactive); (rat, strain Wistar-random, females, in feed, site: urinary bladder, lesion: transitional-cell papilloma, dosed 130 weeks, study length 130 weeks) 79500 mg/kg/day. The carcinogen call is, setting by setting: (rat, strain Sprague-Dawley, males, inhaled, site: liver, lesion: hepatocellular carcinoma, dosed 128 weeks, study length 128 weeks) “negative (inactive)”; (rat, strain Sprague-Dawley, males, inhaled, site: nasal mucosa, lesion: one or several types, types not named, dosed 128 weeks, study length 128 weeks) “negative (inactive)”.

Consider `O=[N+]([O-])c1ccc(-c2nc(N(CCO)CCO)c3ccccc3n2)s1`, for which the TD50 was 1.1 mg/kg/day (rat, strain Sprague-Dawley, males, in feed, site: any site (literature study), lesion: several types, types named in the paper, dosed 50 weeks, study length 52 weeks); 11.5 mg/kg/day (rat, strain Sprague-Dawley, males, in feed, site: mammary gland, lesion: adenocarcinoma, dosed 50 weeks, study length 52 weeks); 6.45 mg/kg/day (rat, strain Sprague-Dawley, males, in feed, site: mammary gland, lesion: several types, types named in the paper, dosed 50 weeks, study length 52 weeks); 3.6 mg/kg/day (rat, strain Sprague-Dawley, males, in feed, site: small intestine, lesion: leiomyosarcoma, dosed 50 weeks, study length 52 weeks); 3.14 mg/kg/day (rat, strain Sprague-Dawley, males, in feed, site: small intestine, lesion: sarcoma, dosed 50 weeks, study length 52 weeks).

With `CC(CN1CC(=O)NC(=O)C1)N1CC(=O)NC(=O)C1` (stereo not given), the TD50 is 23.7 mg/kg/day (mouse, strain B6C3F1, females, i.p., site: all sites, lesion: leukemia + lymphoma, histiocytic type + lymphoma, dosed 52 weeks, study length 86 weeks); 23.7 mg/kg/day and 25.9 mg/kg/day (mouse, strain B6C3F1, females, i.p., site: all sites, lesion: leukemia + lymphoma, dosed 52 weeks, study length 86 weeks); 53.7 mg/kg/day (mouse, strain B6C3F1, females, i.p., site: all sites, lesion: lymphoma, histiocytic type, dosed 52 weeks, study length 86 weeks); 16.8 mg/kg/day (mouse, strain B6C3F1, females, i.p., site: any site (literature study), lesion: several types, types named in the paper, dosed 52 weeks, study length 86 weeks); 262 mg/kg/day (inactive) (mouse, strain B6C3F1, males, i.p., site: any site (literature study), lesion: several types, types named in the paper, dosed 52 weeks, study length 86 weeks); 212 mg/kg/day (mouse, strain B6C3F1, males, i.p., site: lung, lesion: alveolar/bronchiolar adenoma + alveolar/bronchiolar carcinoma, dosed 52 weeks, study length 86 weeks). Besides, the TD50 (rat, strain Sprague-Dawley, females, i.p., site: any site (literature study), lesion: several types, types named in the paper, dosed 52 weeks, study length 81 weeks) amounted to 6.48 mg/kg/day; the TD50 (rat, strain Sprague-Dawley, females, i.p., site: uterus, lesion: adenocarcinoma, NOS, dosed 52 weeks, study length 79 weeks) is 10.7 mg/kg/day; the TD50 (rat, strain Sprague-Dawley, females, i.p., site: uterus, lesion: adenocarcinoma, NOS, dosed 52 weeks, study length 81 weeks) was 11.3 mg/kg/day; the TD50 (rat, strain Sprague-Dawley, males, i.p., site: any site (literature study), lesion: several types, types named in the paper, dosed 52 weeks, study length 81 weeks) is 9.55 mg/kg/day (inactive); the TD50 (rat, strain Sprague-Dawley, males, i.p., site: liver, lesion: hepatocellular adenoma + hepatocellular carcinoma + neoplastic nodule, dosed 52 weeks, study length 81 weeks) stood at 105 mg/kg/day.

On to `O=C1C2CC=CCC2C(=O)N1SC(Cl)(Cl)Cl` (stereo not given), for which the carcinogen call is, setting by setting: (mouse, strain B6AKF1, females, oral dosing, site: any site (literature study), lesion: several types, types named in the paper, dosed 76 weeks, study length 76 weeks) “negative (inactive)”; (mouse, strain B6AKF1, females, oral dosing, site: liver, lesion: hepatoma, dosed 76 weeks, study length 76 weeks) “negative (inactive)”; (mouse, strain B6AKF1, females, oral dosing, site: lung, lesion: adenoma, dosed 76 weeks, study length 76 weeks) “negative (inactive)”; (mouse, strain B6C3F1, females, in feed, site: any site (literature study), lesion: several types, types named in the paper, dosed 80 weeks, study length 91 weeks) “negative (inactive)”; (mouse, strain B6C3F1, females, oral dosing, site: liver, lesion: hepatoma, dosed 76 weeks, study length 76 weeks) “negative (inactive)”; (mouse, strain B6C3F1, females, oral dosing, site: lung, lesion: several types, types named in the paper, dosed 76 weeks, study length 76 weeks) “negative (inactive)”. Further, the carcinogen call (mouse, strain B6C3F1, males, in feed, site: any site (literature study), lesion: several types, types named in the paper, dosed 80 weeks, study length 91 weeks) was “negative (inactive)” and the carcinogen call (rat, strain Osborne-Mendel, females, in feed, site: any site (literature study), lesion: several types, types named in the paper, dosed 80 weeks, study length 113 weeks) was “negative (inactive)”. Also, the TD50 is 161 mg/kg/day (inactive) (mouse, strain B6AKF1, males, oral dosing, site: any site (literature study), lesion: several types, types named in the paper, dosed 76 weeks, study length 76 weeks); 195 mg/kg/day (inactive) (mouse, strain B6AKF1, males, oral dosing, site: liver, lesion: hepatoma, dosed 76 weeks, study length 76 weeks); 3620 mg/kg/day (inactive) (mouse, strain B6AKF1, males, oral dosing, site: lung, lesion: adenoma, dosed 76 weeks, study length 76 weeks); 21600 mg/kg/day (mouse, strain B6C3F1, females, in feed, site: duodenum, lesion: adenocarcinoma in adenomatous polyp, dosed 80 weeks, study length 90 weeks); 244 mg/kg/day (inactive) (mouse, strain B6C3F1, females, oral dosing, site: any site (literature study), lesion: several types, types named in the paper, dosed 76 weeks, study length 76 weeks); 15100 mg/kg/day (mouse, strain B6C3F1, males, in feed, site: duodenum, lesion: adenocarcinoma in adenomatous polyp, dosed 80 weeks, study length 90 weeks). Besides, the TD50 reads like this: (mouse, strain B6C3F1, males, in feed, site: duodenum, lesion: adenomatous polyp, NOS or adenocarcinoma in adenomatous polyp, dosed 80 weeks, study length 90 weeks) 7390 mg/kg/day; (mouse, strain B6C3F1, males, oral dosing, site: any site (literature study), lesion: several types, types named in the paper, dosed 76 weeks, study length 76 weeks) 42.5 mg/kg/day (inactive); (mouse, strain B6C3F1, males, oral dosing, site: liver, lesion: hepatoma, dosed 76 weeks, study length 76 weeks) 86.1 mg/kg/day (inactive); (mouse, strain B6C3F1, males, oral dosing, site: lung, lesion: adenoma, dosed 76 weeks, study length 76 weeks) 187 mg/kg/day (inactive); (mouse, strain Charles River CD1, females, in feed, site: small intestine, lesion: adenoma, dosed 113 weeks, study length 113 weeks) 13300 mg/kg/day; (mouse, strain Charles River CD1, females, in feed, site: small intestine, lesion: carcinoma, dosed 113 weeks, study length 113 weeks) 2110 mg/kg/day. Moreover, the TD50 (mouse, strain Charles River CD1, females, in feed, site: small intestine, lesion: several types, types named in the paper, dosed 113 weeks, study length 113 weeks) was 1740 mg/kg/day; the TD50 (mouse, strain Charles River CD1, males, in feed, site: small intestine, lesion: adenoma, dosed 113 weeks, study length 113 weeks) is 8280 mg/kg/day; the TD50 (mouse, strain Charles River CD1, males, in feed, site: small intestine, lesion: carcinoma, dosed 113 weeks, study length 113 weeks) is 3500 mg/kg/day; the TD50 (mouse, strain Charles River CD1, males, in feed, site: small intestine, lesion: several types, types named in the paper, dosed 113 weeks, study length 113 weeks) was 2690 mg/kg/day; the TD50 (rat, strain Charles River CD (Sprague-Dawley), females, in feed, site: kidney, lesion: several types, types named in the paper, dosed 104 weeks, study length 104 weeks) was 17900 mg/kg/day; the TD50 (rat, strain Charles River CD (Sprague-Dawley), females, in feed, site: kidney, lesion: tubule carcinoma, dosed 104 weeks, study length 104 weeks) amounted to 17900 mg/kg/day. In addition, the TD50 was 2690 mg/kg/day (rat, strain Charles River CD (Sprague-Dawley), males, in feed, site: kidney, lesion: several types, types named in the paper, dosed 104 weeks, study length 104 weeks); 3810 mg/kg/day (rat, strain Charles River CD (Sprague-Dawley), males, in feed, site: kidney, lesion: tubule adenoma, dosed 104 weeks, study length 104 weeks); 11500 mg/kg/day (rat, strain Charles River CD (Sprague-Dawley), males, in feed, site: kidney, lesion: tubule carcinoma, dosed 104 weeks, study length 104 weeks); 253 mg/kg/day (inactive) (rat, strain Osborne-Mendel, females, in feed, site: adrenal gland, lesion: cortical adenoma + cortical carcinoma, dosed 80 weeks, study length 109 weeks); 4780 mg/kg/day (inactive) (rat, strain Osborne-Mendel, males, in feed, site: any site (literature study), lesion: several types, types named in the paper, dosed 80 weeks, study length 113 weeks); 1700 mg/kg/day (rat, strain Wistar, females, in feed, site: uterus, lesion: sarcoma, dosed 130 weeks, study length 130 weeks).
